Assay results reported in US5324725A, “7-fused 2-(piperazinoalkyl) indole derivatives, intermediates and compositions thereof” (Kali-Chemie Pharma GmbH, priority 1991, dated 1994).
Like-named read-outs stand apart in the source and are kept apart here.

Legend:
[1] = test system: Histamine-induced anaphylactoid reactions; assay: Inhibition of anaphylactoid cutaneous reaction induced by histamine; type: in vivo, rat (Sprague-Dawley); conditions: Rattus norvegicus, 1 h; rats, 2 × 10^-5 mol/kg p.o., one hour before challenge; histamine intradermal
Method in brief: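 Animals received 50 μl intradermal histamine (0.8 mg/ml in saline) in the flank opposite the antiserum site, just before i.v. ovalbumin plus blue dye. Test substance at 2×10^-5 mol/kg was given orally 1 h before challenge in water with 1% DMF and 1% Tween 20. Blue-dye exudation was scored visually at 30 min, giving % inhibition versus solvent controls.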

[2] = Determination of the minimum toxic dose; set-up: species or system male mice; conditions: mouse, in vivo, po, 300 mg/kg, 1440 min
Description: 2. Determination of the minimum toxic dose.
Maximum doses of 300 mg/kg of the test substance were administered orally to male mice weighing 20-25 g. The animals were observed carefully for 3 hours for toxicity symptoms. In addition, all symptoms and deaths over a period of 24 hours after administration were recorded. Associated symptoms were also observed and recorded. If death or severe toxic symptoms were observed, further mice were administered increasingly lower doses. The lowest dose which caused death or severe toxic symptoms is given as the minimum toxic dose in the following Table B.

histamine (H1) receptor = target: T1, histamine (H1) receptor (Cavia porcellus, UniProt P31389); assay: Antihistamine (H1) effect: inhibition of histamine-induced contractions of isolated guinea-pig ileum in vitro; type: cell-based, guinea-pig (Dunkin Hartley); conditions: histamine 5 × 10^-6 mol/l, test substance 10^-6 mol/l
T1 construct: isolated smooth muscle of the guinea-pig ileum; from tissue; host or cells: isolated ileum segments of Dunkin Hartley guinea-pigs
Method in brief: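 Dunkin Hartley guinea-pig ileum segments (300-500 g animals) in Krebs-Henseleit, pH 7.4, 5% CO2/95% O2, 1 g tension, isotonic recording. Compound at 10^-6 mol/l for 30 s before histamine 5×10^-6 mol/l; contraction measured over 30 s, repeated 10 min after washout, expressed as % inhibition.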

[3] = test system: Passive cutaneous anaphylaxis (P.C.A.); assay: Inhibition of passive cutaneous anaphylaxis (P.C.A.); type: in vivo, rat (Sprague-Dawley); conditions: Rattus norvegicus, 1 h; rats, 2 × 10^-5 mol/kg p.o., one hour before ovalbumin challenge
Method in brief: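 Sprague-Dawley rats (150-180 g) were sensitized intradermally with rat IgE-rich anti-ovalbumin serum and challenged 24 h later with i.v. ovalbumin 8.25 mg/kg plus Evans blue. Compound was given orally at 2×10^-5 mol/kg 1 h before challenge. Dye exudation was scored visually at 30 min as % inhibition versus vehicle controls.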

[4] = after 30 sec., read-out: in vitro (H1) receptor antagonism % inhibitory effect on histamine-induced contractions of the Ileum, after 30 sec.
[5] = after 10 min. (after washing), read-out: in vitro (H1) receptor antagonism % inhibitory effect on histamine-induced contractions of the Ileum, after 10 min.

T1 sequence (P31389 whole entry): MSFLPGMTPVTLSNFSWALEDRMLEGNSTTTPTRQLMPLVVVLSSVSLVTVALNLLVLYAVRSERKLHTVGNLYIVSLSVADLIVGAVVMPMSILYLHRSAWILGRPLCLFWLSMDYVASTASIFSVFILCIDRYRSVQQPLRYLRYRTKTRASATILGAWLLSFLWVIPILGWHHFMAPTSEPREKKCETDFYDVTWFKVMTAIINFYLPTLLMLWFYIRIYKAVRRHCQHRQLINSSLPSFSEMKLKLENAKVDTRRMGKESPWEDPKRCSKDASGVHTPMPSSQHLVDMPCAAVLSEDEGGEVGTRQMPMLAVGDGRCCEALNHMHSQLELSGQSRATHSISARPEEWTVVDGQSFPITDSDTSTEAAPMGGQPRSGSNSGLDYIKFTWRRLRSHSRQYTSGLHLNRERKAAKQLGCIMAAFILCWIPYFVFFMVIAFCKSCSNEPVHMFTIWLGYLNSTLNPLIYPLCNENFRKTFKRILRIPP

inhibition at 1 µM (histamine (H1) receptor; [4]) [%] | inhibition at 1 µM (histamine (H1) receptor; [5]) [%] | Structure (SMILES) | inhibition in vivo at 20 µmol/kg [1] [%] | Minimum toxic dose (lowest dose which caused death or severe toxic symptoms) [2] [mg/kg] | inhibition in vivo at 20 µmol/kg [3] [%]
 |  | CCc1c(C(O)CN2CCN(c3cc(C)ccn3)CC2)c2cccc3c2n1CCC3 (stereo not drawn) [Example 14, 2-Ethyl-5,6-dihydro-1-{2-[4-(4-methylpyridin-2-yl)piperazin-1-yl]-1-hydroxyethyl}-4H-pyrrolo[3,2,1-ij]quinoline] | 25 | 300 | 65
59 | 93 | CC(=O)c1cc2c3c(c1)c(CCN1CCN(c4cc(C)ccn4)CC1)c(C)n3CCC2 [Example 67] | 95 |  | 100
9 | 37 | Cc1ccnc(N2CCN(CCc3c(C)n4c5c(cc(NC(=O)C(C)C)cc35)CCC4)CC2)c1 [Example 60] | 95 |  | 100
 |  | Cc1cc2c3c(c1)c(CCN1CCC(C(=O)c4ccc(F)cc4)CC1)c(C)n3CCC2 [Example 55] | 50 | 300 | 80
10 | 71 | Cc1ccnc(N2CCN(CCc3c(C)n4c5c(cc(C(=O)c6ccccc6)cc35)CCC4)CC2)c1 [Example 66] | 70 |  | 80
16 | 83 | Cc1ccnc(N2CCN(CCc3c(C)n4c5c(ccc(C(=O)C(C)C)c35)SCC4)CC2)c1 [Example 91] | 87 |  | 86
17 | 67 | CCCCC1CCc2cc(OC)cc3c(CCN4CCN(c5cc(C)ccn5)CC4)c(C)n1c23 (stereo not drawn) [Example 63] | 95 |  | 100
21 | 48 | COc1ccc(C2CCc3cc(OC)cc4c(CCN5CCN(c6cc(C)ccn6)CC5)c(C)n2c34)cc1 (stereo not drawn) [Example 65] | 95 |  | 100
42 | 55 | Cc1ccnc(N2CCN(CCc3c(CO)n4c5c(cccc35)CCC4)CC2)c1 [Example 16, 5,6-dihydro-2-hydroxymethyl-1-{2-[4-(4-methylpyridin-2-yl)piperazin-1-yl]ethyl}-4H-pyrrolo[3,2,1-ij]quinoline] | 73 |  | 85
33 | 92 | Cc1ccnc(N2CCN(CCc3c(C)n4c5c(cc(C(=O)C(C)C)cc35)CCC4)CC2)c1 [Example 27, 5,6-dihydro-2-methyl-8-(2-methyl-1-oxopropyl)-1-{2-[4-(4-methylpyridin-2-yl)piperazin-1-yl]ethyl}-4H-pyrrolo-[3,2,1-ij]quinoline] | 95 |  | 100
24 | 61 | Cc1c(CCN2CCN(c3ccccn3)CC2)c2cccc3c2n1CCC3 [Example 37] | 58 |  | 60
3 | 67 | CCCCC1CCc2cc(O)cc3c(CCN4CCN(c5cc(C)ccn5)CC4)c(C)n1c23 (stereo not drawn) [Example 76] | 100 |  | 100

Structure (SMILES) | inhibition at 1 µM (histamine (H1) receptor; [4]) [%] | inhibition at 1 µM (histamine (H1) receptor; [5]) [%] | inhibition in vivo at 20 µmol/kg [1] [%] | Minimum toxic dose (lowest dose which caused death or severe toxic symptoms) [2] [mg/kg] | inhibition in vivo at 20 µmol/kg [3] [%]
Cc1ccnc(N2CCN(CCc3c(C)n4c5c(cccc35)CCC4c3ccccc3)CC2)c1 (stereo not drawn) [Example 3, 5,6-dihydro-2-methyl-4-phenyl-1-{2-[4-(4-methylpyridine-2-yl)piperazin-1-yl]-ethyl}-4H-pyrrolo[3,2,1-ij]quinoline] | 15 | 57 | 93 | 300 | 100
Cc1ccnc(N2CCN(CCc3cn4c5c(cccc35)CCC4)CC2)c1 [Example 13, 5,6-Dihydro-1-{2-[4-(4-methylpyridin-2-yl)piperazin-1-yl]ethyl}-4H-pyrrolo[3,2,1-ij]quinoline] | 33 | 63 | 68 | 100 | 83
Cc1ccnc(N2CCN(CCc3c(C)n4c5c(cccc35)SCC4)CC2)c1 [Example 11, 5-Methyl-6-{2-[4-(4-methylpyridin-2-yl)piperazin-1-yl]ethyl}-2,3-dihydro-pyrrolo[1,2,3-de]-1,4-benzo-thiazine] | 21 | 84 | 93 | 100 | 100
Cc1ccc(N2CCN(CCc3c(C)n4c5c(cccc35)CCC4)CC2)nc1 [Example 42] | 52 | 54 | 45 | 100 | 50
Cc1ccnc(N2CCN(CCc3c(C)n4c5c(cccc35)C(C)CC4)CC2)c1 (stereo not drawn) [Example 57] | 20 | 80 | 95 | 300 | 100
CC(=O)Oc1cc2c3c(c1)c(CCN1CCN(c4cc(C)ccn4)CC1)c(C)n3CCC2 [Example 24, 8-Acetoxy-5,6-dihydro-2-methyl-1-{2-[4-(4-methyl-pyridin-2-yl)piperazin-1-yl]ethyl}-4H-pyrrolo[3,2,1-ij]quinoline] | 81 | 94 | 60 |  | 55
Cc1ccnc(N2CCN(CCc3c(C)n4c5c(cc(C)cc35)CCC4)CC2)c1 [Example 54] | 8 | 94 | 73 | 300 | 93
Cc1ccnc(N2CCN(CCc3c(C)n4c5c(ccc(Cl)c35)OCC4)CC2)c1 [Example 35] | 25 | 78 | 58 | 300 | 75
Cc1ccnc(N2CCN(CCc3c(C)n4c5c(cccc35)CCC4)CC2)c1 [Example 1, 5,6-Dihydro-2-methyl-1-{2-[4-(4-methylpyridin-2-yl)piperazin-1-yl]ethyl}-4H-pyrrolo[3,2,1-ij]quinoline] | 42 | 88 | 85 | 100 | 98
